Here are results for 5 compounds from US7378433B2, “N-[4-(heteroarylmethyl)phenyl]-heteroarylamines” (Janssen Pharmaceutica, N.V., priority 1996, dated 2008).

Molecules are shown by their SMILES. A value given as a limit tells only on which side of the number the result lay.

For this assay, the system named is RA-metabolism in MCF-7 human breast cancer cells. Briefly: Inhibition of retinoic acid (RA) metabolism. The assay is classed as cell-based. Particulars: MCF7, concentration needed to reduce the amount of polar 3H-RA metabolites to 50% of the control, MCF-7 cells. An excerpt:
The property to delay the metabolism of retinoic acid can be evidenced in various in vitro and in vivo experiments. A particular in vitro procedure is described in example C.1 and tests the inhibitory activity of the compounds of formula (I) on the metabolism of retinoic acid in human breast cancer cells. The compounds of the present invention were also effective in suppressing induced vaginal keratinization effects in ovariectomized rats as is described in example C.2.
MCF-7 human breast cancer cells were grown as stock cultures according to art-known protocols. One day before the experiment, RA is added to the stock cultures to stimulate RA-metabolism. At the start of the experiment, cell suspensions were incubated in a tissue culture medium containing ^3H-RA as the substrate. Different concentrations of the test compound (dissolved in 1% DMSO) were added to the incubation mixtures, and at the end of the incubation, the unmetabolized RA is separated from its polar metabolites. The fraction containing the polar ^3H-labeled metabolites was collected and counted in a scintillation counter. For each experiment, a control and a blank incubation were run in parallel.
Consider `CC(C)C(c1ccc(Nc2nccs2)cc1)n1ccnc1` (racemic) [Compound 51, (±)-N-[4-[1-(1H-imidazol-1-yl)-2-methylpropyl]phenyl]-2-thiazolamine], for which the concentration for half-maximal inhibition (IC50) was below 10 nM.
To `c1ccc2sc(Nc3ccc(Cn4ccnc4)cc3)nc2c1` [Compound 24, N-[4-(1H-imidazol-1-ylmethyl)-phenyl]-2-benzothiazolamine] belongs below 10 nM; to `CCC(CC)C(c1ccc(Nc2nc3ccccc3o2)cc1)n1cncn1` (centres unmarked) [Compound 56, N-[4-[2-ethyl-1-(1H-1,2,4-triazol-1-yl)butyl]phenyl]-2-benzoxazolamine], below 10 nM; to `Cc1csc(Nc2ccc(C(C(C)C)n3ccnc3)cc2)n1` (racemic) [Compound 50, (±)-N-[4-[1-(1H-imidazol-1-yl)-2-methylpropyl]phenyl]-4-methyl-2-thiazolamine], below 10 nM.
To `CCC(CC)C(c1ccc(Nc2nc3ccccc3s2)cc1)n1cncn1` (racemic) [Compound 25, (±)-N-[4-[2-ethyl-1-(1H-1,2,4-triazol-1-yl)butyl]phenyl]-2-benzothiazol-amine] belongs below 10 nM.
